Test results as given in patent publication US20090156577A1, “7-AMINO ALKYLIDENYL-HETEROCYCLIC QUINOLONES AND NAPHTHYRIDONES” (priority 2004, published 2009).
≈ marks a conversion by molar mass, not a printed value. Read-outs that look alike come from different tables or passages of the source.

System: pathogenic bacteria
Experiment: MIC by microdilution broth method (NCCLS M7-A4), in vitro antibacterial activity
Type: cell-based
Outline: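 Broth microdilution per NCCLS M7-A4: two-fold serial dilutions in cation-adjusted Mueller-Hinton broth, inoculum about 5×10^4 CFU/well. Trays incubated 16–20 h at 35 °C. MIC read by comparing growth against no-compound growth controls.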

[1] = Staphylococcus aureus, Organism A: Staphylococcus aureus OC4172, read-out: MIC
[2] = Streptococcus pneumoniae, ATCC49619, Organism E: Streptococcus pneumoniae ATCC 49619, read-out: MIC
[3] = Streptococcus pneumoniae, Organism B: fluoroquinolone-resistant clinical isolate of Streptococcus pneumoniae (QRDR amino acid substitutions)
[4] = Streptococcus pneumoniae, Organism C: fluoroquinolone-resistant clinical isolate of Streptococcus pneumoniae (QRDR amino acid substitutions)
[5] = Streptococcus pneumoniae, Organism D: fluoroquinolone-resistant clinical isolate of Streptococcus pneumoniae (QRDR amino acid substitutions)

SMILES | MIC [1] | MIC [2] | MIC [3] | MIC [4] | MIC [5] | MIC (Organism A: Staphylococcus aureus OC4172) | MIC (Organism C: fluoroquinolone-resistant clinical isolate of Streptococcus pneumoniae (QRDR amino acid substitutions))
C/C(CN)=C1/CCCN(c2cc3c(cc2F)c(=O)c(C(=O)O)cn3C2CC2)C1 [Compound 385, (E)-7-[3-(2-Amino-1-methyl-ethylidene)-piperidin-1-yl]-1-cyclopropyl-6-fluoro-4-oxo-1,4-dihydro-quinoline-3-carboxylic acid] | 1 µg/mL (≈ 2.59 µM) | 8 µg/mL (≈ 20.8 µM) | > 16 µg/mL | > 16 µg/mL | > 16 µg/mL | – | –
NC/C=C1/CCCN(c2c(F)cc3c(=O)c(C(=O)O)cn(-c4nc(N)c(F)cc4F)c3c2Cl)C1 [Compound 413, (Z)-1-(6-Amino-3,5-difluoro-pyridin-2-yl)-7-[3-(2-amino-ethylidene)-piperidin-1-yl]8-chloro-6-fluoro-4-oxo-1,4-dihydro-quinoline-3-carboxylic acid] | 0.25 µg/mL (≈ 0.506 µM) | 2 µg/mL (≈ 4.05 µM) | 16 µg/mL (≈ 32.4 µM) | > 16 µg/mL | > 16 µg/mL | – | –
N#C/C(CN)=C1/CCCN(c2nc3c(cc2F)c(=O)c(C(=O)O)cn3C2CC2)C1 [Compound 443, (Z)-7-[3-(2-Amino-1-cyano-ethylidene)-piperidin-1-yl]-1-cyclopropyl-6-fluoro-4-oxo-1,4-dihydro-[1,8]naphthyridine-3-carboxylic Acid] | 0.5 µg/mL (≈ 1.26 µM) | 8 µg/mL (≈ 20.1 µM) | 8 µg/mL (≈ 20.1 µM) | > 16 µg/mL | > 16 µg/mL | – | –
CNCC(C)=C1CCN(c2cc3c(cc2F)c(=O)c(C(=O)O)cn3C2CC2)CC1 [Compound 218, 1-Cyclopropyl-6-fluoro-7-[4-(1-methyl-2-methylamino-ethylidene)-piperidin-1-yl]-4-oxo-1,4-dihydro-quinoline-3-carboxylic acid] | – | 0.25 µg/mL (≈ 0.626 µM) | – | – | 2 µg/mL (≈ 5.01 µM) | 0.12 µg/mL (≈ 0.3 µM) | 2 µg/mL (≈ 5.01 µM)
O=C(O)c1cn(C2CC2)c2cc(N3CCC(=CCO)CC3)c(F)cc2c1=O [Compound 164, 1-Cyclopropyl-6-fluoro-7-[4-(2-hydroxy-ethylidene)-piperidin-1-yl]-4-oxo-1,4-dihydro-quinoline-3-carboxylic acid] | 0.12 µg/mL (≈ 0.322 µM) | 2 µg/mL (≈ 5.37 µM) | 32 µg/mL (≈ 85.9 µM) | > 32 µg/mL | – | – | –
Nc1nc(-n2cc(C(=O)O)c(=O)c3cc(F)c(N4CC(=C(Cl)CO)C4)c(Cl)c32)c(F)cc1F [Compound 361, 1-(6-Amino-3,5-difluoro-pyridin-2-yl)-8-chloro-7-[3-(1-chloro-2-hydroxy-ethylidene)-azetidin-1-yl]-6-fluoro-4-oxo-1,4-dihydro-quinoline-3-carboxylic acid] | ≤ 0.015 µg/mL | ≤ 0.015 µg/mL | 0.12 µg/mL (≈ 0.239 µM) | 0.12 µg/mL (≈ 0.239 µM) | 0.06 µg/mL (≈ 0.12 µM) | – | –
COc1c(N2CCC(=C(Cl)CN)CC2)c(F)cc2c(=O)c(C(=O)O)cn([C@@H]3C[C@@H]3F)c12 [Compound 262, 7-[4-(2-Amino-1-chloro-ethylidene)-piperidin-1-yl]-6-fluoro-(1R,2S)-1-(2-fluoro-cyclopropyl)-8-methoxy-4-oxo-1,4-dihydro-quinoline-3-carboxylic acid] | ≤ 0.015 µg/mL | 0.25 µg/mL (≈ 0.551 µM) | – | 1 µg/mL (≈ 2.2 µM) | 1 µg/mL (≈ 2.2 µM) | – | –
NCC(Cl)=C1CCN(c2c(F)cc3c(=O)c(C(=O)O)cn(C4CC4)c3c2OC(F)F)CC1 [Compound 73, 7-[4-(2-Amino-1-chloro-ethylidene)-piperidin-1-yl]-1-cyclopropyl-8-difluoromethoxy-6-fluoro-4-oxo-1,4-dihydro-quinoline-3-carboxylic acid] | 0.06 µg/mL (≈ 0.127 µM) | 0.12 µg/mL (≈ 0.254 µM) | 0.5 µg/mL (≈ 1.06 µM) | 1 µg/mL (≈ 2.12 µM) | 0.25 µg/mL (≈ 0.53 µM) | – | –
Cc1c(N2CCC/C(=C(\F)CN)C2)c(F)cc2c(=O)c(C(=O)O)cn(C3CC3)c12 [Compound 459, 7-[(E)-3-(2-Amino-1-fluoro-ethylidene)-piperidin-1-yl]-1-cyclopropyl-6-fluoro-8-methyl-4-oxo-1,4-dihydro-quinoline-3-carboxylic Acid] | ≤ 0.015 µg/mL | 0.06 µg/mL (≈ 0.149 µM) | – | 0.25 µg/mL (≈ 0.62 µM) | 0.12 µg/mL (≈ 0.297 µM) | – | –
COc1c(N2CCC/C(=C(\C)CN)C2)c(F)cc2c(=O)c(C(=O)O)cn(C3CC3)c12 [Compound 302, (Z)-7-[3-(2-Amino-1-methyl-ethylidene)-piperidin-1-yl]-1-cyclopropyl-6-fluoro-8-methoxy-4-oxo-1,4-dihydro-quinoline-3-carboxylic acid] | ≤ 0.03 µg/mL | ≤ 0.12 µg/mL | 1 µg/mL (≈ 2.41 µM) | ≤ 0.5 µg/mL | 1 µg/mL (≈ 2.41 µM) | – | –
NCC(F)=C1CN(c2nc3c(cc2F)c(=O)c(C(=O)O)cn3C2CC2)C1 [Compound 80, 7-[3-(2-Amino-1-fluoro-ethylidene)-azetidin-1-yl]-1-cyclopropyl-6-fluoro-4-oxo-1,4-dihydro-[1,8]naphthyridine-3-carboxylic acid] | 0.06 µg/mL (≈ 0.166 µM) | 0.12 µg/mL (≈ 0.331 µM) | 0.5 µg/mL (≈ 1.38 µM) | 2 µg/mL (≈ 5.52 µM) | 1 µg/mL (≈ 2.76 µM) | – | –
NC/C(F)=C1\CCCN(c2cc3c(cc2F)c(=O)c(C(=O)O)cn3C2CC2)CC1 [Compound 501, (Z)-7-[4-(2-Amino-1-fluoro-ethylidene)-azepan-1-yl]-1-cyclopropyl-6-fluoro-4-oxo-1,4-dihydro-quinoline-3-carboxylic acid] | 0.25 µg/mL (≈ 0.62 µM) | 2 µg/mL (≈ 4.96 µM) | – | 8 µg/mL (≈ 19.8 µM) | 16 µg/mL (≈ 39.7 µM) | – | –
NCC(Cl)=C1CCN(c2c(F)cc3c(=O)c(C(=O)O)cn(-c4nc(N)c(F)cc4F)c3c2Cl)CC1 [Compound 270, 7-[4-(2-Amino-1-chloro-ethylidene)-piperidin-1-yl}-1-(6-amino-3,5-difluoropyridin-2-yl)-8-chloro-6-fluoro-4-oxo-1,4-dihydro-quinoline-3-carboxylic Acid] | 0.06 µg/mL (≈ 0.114 µM) | 0.5 µg/mL (≈ 0.946 µM) | – | 4 µg/mL (≈ 7.57 µM) | 2 µg/mL (≈ 3.79 µM) | – | –
COc1c(N2CCC(=C(Cl)CN)CC2)ccc2c(=O)c(C(=O)O)cn(C3CC3)c12 [Compound 275, 7-[4-(2-Amino-1-chloro-ethylidene)-piperidin-1-yl]-1-cyclopropyl-8-methoxy-4-oxo-1,4-dihydro-quinoline-3-carboxylic acid] | 0.03 µg/mL (≈ 0.0718 µM) | 0.12 µg/mL (≈ 0.287 µM) | 1 µg/mL (≈ 2.39 µM) | 1 µg/mL (≈ 2.39 µM) | 1 µg/mL (≈ 2.39 µM) | – | –
CN(C)CC(Cl)=C1CCN(c2nc3c(cc2F)c(=O)c(C(=O)O)cn3C2CC2)CC1 [Compound 180, 7-[4-(1-Chloro-2-dimethylamino-ethylidene)-piperidin-1-yl]-1-cyclopropyl-6-fluoro-4-oxo-1,4-dihydro-[1,8]naphthyridine-3-carboxylic acid] | 0.5 µg/mL (≈ 1.15 µM) | 0.5 µg/mL (≈ 1.15 µM) | – | 8 µg/mL (≈ 18.4 µM) | 2 µg/mL (≈ 4.6 µM) | – | –
COc1c(N2CC(=C(Cl)CN)C2)ccc2c(=O)c(C(=O)O)cn(C3CC3)c12 [Compound 209, 7-[3-(2-Amino-1-chloro-ethylidene)-azetidin-1-yl]-1-cyclopropyl-8-methoxy-4-oxo-1,4-dihydro-quinoline-3-carboxylic acid] | 0.12 µg/mL (≈ 0.308 µM) | 2 µg/mL (≈ 5.13 µM) | – | 8 µg/mL (≈ 20.5 µM) | 16 µg/mL (≈ 41 µM) | – | –
COc1c(N2CCC(=C(Cl)CNC(=O)CN)CC2)c(F)cc2c(=O)c(C(=O)O)cn(C3CC3)c12.O=C(O)C(F)(F)F [Compound 445, 7-{4-[2-(2-Amino-acetylamino)-1-chloro-ethylidene]-piperidin-1-yl}-1-cyclopropyl-6-fluoro-8-methoxy-4-oxo-1,4-dihydro-quinoline-3-carboxylic Acid Trifluoroacetate Salt] | 0.12 µg/mL | 1 µg/mL | 16 µg/mL | > 16 µg/mL | > 16 µg/mL | – | –
